# Assays:
# [1] = cited from earlier work
# [2] = concomitant administration for patients treated with ASA (Müller et al 1997); cited from earlier work
# [3] = randomized, double-blind, placebo-controlled trial of esomeprazole 20 mg once daily for 26 weeks in patients receiving ASA; format: in vivo
# Procedure: Patients were randomized to receive either esomeprazole 20 mg (administered as esomeprazole magnesium, i.e. Nexium® owned by AstraZeneca AB) or placebo once daily for 26 weeks. The primary outcome variable was the presence of gastric and/or duodenal ulcers at endoscopy over the 26-week period. A total of 991 patients, all receiving ASA in doses varying between 75-325 mg/day (57.1% male, mean age 69.3 years, mean acetyl salicylic acid (ASA) dose 124.0 mg/day) were included in the intent-to-treat population. The cumulative proportion of patients without either gastric or duodenal ulcer at 26 weeks was 98.2% with esomeprazole, compared with 93.8% with placebo (life table estimates, p=0.0007). The incidence of gastric ulcers was lower in patients taking esomeprazole than in those taking placebo (1.2% vs. 3.8%), as was the incidence of duodenal ulcers (0.4% and 1.6% for esomeprazole and placebo, respectively). Eight patients (1.6%) had developed an ulcer, in the esomeprazole group by 6 months, compared with 27 patients (5.4%) in the placebo group. This corresponded to a relative reduction of developing an ulcer of 70% when taking esomeprazole rather than placebo. A total of 95.6% of patients treated with esomeprazole had no esophageal lesions at week 26, compared with 81.7% of patients treated with placebo (p<0.0001).
# [4] = esomeprazole 20 mg once daily, 26 weeks, patients on ASA
smiles,measurement,setting,value
"CC(=O)Oc1ccccc1C(=O)O [ASA, acetyl salicylic acid]",relative risk of developing an ulcer complication like bleeding from the stomach or the duodenum,[1]; daily dose as low as 75 mg (Weil et al BMJ 1995),doubles
same,hospital admissions due to adverse drug reactions caused by ASA,[1]; epidemiological data from the UK (Pirmohamed et al BMJ 2004),18%
Cc1c(OCC(F)(F)F)ccnc1C[S+]([O-])c1nc2ccccc2[nH]1 (stereo not drawn) [lansoprazole],effect on damages on the mucosa caused by ASA,[2],reduce damages on the mucosa caused by ASA
COc1ccc2nc([S@@+]([O-])Cc3ncc(C)c(OC)c3C)[nH]c2c1 [esomeprazole],resolution of investigator-assessed upper gastrointestinal symptoms,"[3]; all symptoms, versus placebo",higher with esomeprazole than with placebo
same,safety and tolerability,"[3]; esomeprazole 20 mg once daily for 26 weeks, patients on ASA",safe and well tolerated
same,incidence of duodenal ulcers,[3]; [4],0.4%
same,incidence of gastric ulcers,[3]; [4],1.2%
same,cumulative proportion of patients without either gastric or duodenal ulcer at 26 weeks,"[3]; esomeprazole 20 mg once daily, 26 weeks, patients ≧60 years on ASA 75-325 mg/day, life table estimates, p=0.0007 vs placebo",98.2%
same,patients who had developed an ulcer by 6 months,"[3]; esomeprazole 20 mg once daily, patients on ASA, eight patients",1.6%
same,patients with no esophageal lesions at week 26,"[3]; esomeprazole 20 mg once daily, patients on ASA, p<0.0001 vs placebo",95.6%
same,relative reduction of developing an ulcer,"[3]; esomeprazole rather than placebo, by 6 months",70%
same,proportion of patients without esophageal lesions at 6 months,"[3]; patients with no lesions and those with Los Angeles grade A lesions at baseline, versus placebo",higher with esomeprazole than with placebo

# — patent US20070122470A1, “New Combination Dosage Form” (priority 2005, published 2007)
